# Results from patent publication US9370511B2, “Morphinan-derivatives for treating diabetes and related disorders” (priority 2011, dated 2016).
# “Also recorded” adds a separate entry of the source.
# Key:
# mouse pancreatic islets = assay: Insulin secretion from mouse pancreatic islets at low and high glucose; type: cell-based; conditions: comparison of DXO, DXM and LEV
# Protocol: (§1) Mouse pancreatic islets were treated with a low, non-stimulatory glucose concentration (2.5 mM) or a high, stimulatory glucose concentration (25 mM) in the absence or presence of 1 μM or 10 μM dextrorphan. Insulin secretion was determined as percent of […] glucose control, and values are expressed as means+/−SD (N=3). The asterisks (*) indicate p values smaller than 0.05 in Student's t-tests.
# Low Glucose (2.5 mM); High Glucose (25 mM); p<0.05 (Student's t-Test), N=3.
# Example 1 was repeated in order to compare dextrorphan, dextromethorphan, and levorphanol with one another.
# [1] = system: db/db mouse (an animal model for human type 2 diabetes mellitus); assay: Long-term treatment of db/db mice with dextromethorphan in drinking water; type: in vivo
# Description: Therefore, long-term treatment with dextromethorphan is beneficial for beta cell function and blood glucose control in a mouse model for human type 2 diabetes mellitus.
# [2] = system: male subjects with type 2 diabetes mellitus; assay: Clinical trial, oral single dose followed by oral glucose tolerance test (OGTT); type: in vivo, human
# Protocol: The study was designed as a randomized, double-blind, placebo-controlled crossover study to investigate the glucose lowering effect of oral single doses of DXM 270 mg (FIG. 10) and DXM 60 mg (FIG. 11) vs. placebo in subjects with T2DM following an oral glucose tolerance test (OGTT). DXM 270 mg, DXM 60 mg or placebo was administered orally at 0 minutes. OGTT was started at 60 minutes (75 g glucose orally). Blood glucose levels were measured at the indicated times. n=20 male with T2DM on a stable regimen of metformin monotherapy, between 45 and 70 years of age, with a BMI between 25 and 35 kg/m2, HbA1c between 7 and 8%. Student's t-test. *p=0.01, **p<0.001All values are means±SD.
# [3] = system: painful diabetic neuropathy; conditions: in vivo; cited from earlier work
# [4] = system: children with severe bacterial meningitis; conditions: 36 mg kg^−1 day^−1; two children, also on glucocorticoids; cited from earlier work
# human pancreatic islets = assay: Insulin secretion from human pancreatic islets at low and high glucose; type: cell-based; conditions: 1 μM; low glucose 2 mM vs high glucose 20 mM
# Protocol: as §1
# Example 1 was repeated but the mouse pancreatic islets were replaced by human pancreatic islets.
# Low Glucose (2 mM); High Glucose (20 mM); the asterisks (*) indicate p values smaller than 0.05 in Student's t-tests.
# diabetics = conditions: long-term experience; cited from earlier work
# [5] = 3 mg/ml in drinking water, 8 weeks, compared to low dose 1 mg/ml
smiles,measurement,setting,value
"COc1ccc2c(c1)[C@]13CCCC[C@@H]1[C@H](C2)N(C)CC3 [dextromethorphan, (+)-3-methoxy-17-methyl-(9α,13α,14α)-morphinan]","glucose-dependent insulin secretion, compared with levorphanol",mouse pancreatic islets,significantly more effective in inducing glucose-dependent insulin secretion than levorphanol
same,"glucose-dependent insulin secretion, compared with levorphanol",mouse pancreatic islets; listed as DXM,increase glucose-dependent insulin secretion from pancreatic islets to a significantly larger extent compared to LEV
same,effectiveness of the low dose,[1]; 1 mg/ml in drinking water,ineffective
same,beta cell area,[1]; [5],significantly larger
same,insulin content of islets,[1]; [5],significantly increased; also recorded: contained significantly more insulin
same,starving blood glucose levels,[1]; [5],significantly improved starving blood glucose levels; also recorded: lower blood glucose levels or better blood glucose control
same,blood glucose levels during oral glucose tolerance test,[2]; 60 mg oral single dose vs placebo,too low a concentration
same,starving blood glucose levels,[2]; 270 mg oral single dose,does not affect starving blood glucose levels
same,blood glucose levels during oral glucose tolerance test,[2]; 270 mg oral single dose vs placebo,significantly lowers blood glucose levels after glucose uptake
same,hypoglycemic events,"[2]; 20 patients, oral single doses",no hypoglycemic events were observed
same,efficacy in painful diabetic neuropathy,[3],effective in treating painful diabetic neuropathy
same,serious adverse event,[4],developed an insulin dependent diabetes mellitus
COc1ccc(Cl)cc1C(=O)NCCc1ccc(S(=O)(=O)NC(=O)NC2CCCCC2)cc1 [glibenclamide],"insulin secretion, basal and glucose-stimulated",human pancreatic islets,increases both basal (2 mM glucose) and glucose-stimulated (20 mM glucose) insulin secretion
CN1CC[C@]23CCCC[C@H]2[C@H]1Cc1ccc(O)cc13 [levorphanol],"glucose-dependent insulin secretion, compared with levorphanol",mouse pancreatic islets,"not the levorotatory (−) stereoisomer that mainly targets opioid receptors, increases glucose-dependent insulin secretion to a large extent"
CN(C)C(=N)N=C(N)N [metformin],reduction of diabetes complications and mortality,diabetics,about 30%
